Laboratory results: patent publication US4487763A, “Peptide, process for preparation thereof and use thereof” (Fujisawa Pharmaceutical Co., Ltd., priority 1979, dated 1984)

How the values were obtained:
[1] = test system: Mice (DDY male 5-6 W); assay: Blood stream clearance of carbon; assay type: in vivo; settings: carbon clearance measured 24 hours later
Method: 1. Carbon suspension. Rotoring drawing ink (170 mg carbon/ml.) was diluted to 1/5 of the original concentration in saline containing 1% gelatin. 2. 0.1% aqueous sodium carbonate solution. Mice (DDY male 5-6 W) were injected via the tail vein with a dose of 0.01 ml/g body weight of carbon. Blood samples were taken by means of a pointed capillary […] calibrated to hold a 50 μl and previously washed in heparin. This was plunged into the retroorbital venous sinus at the nasal angle of the eye. The samples were removed at 3 and 6 min. The blood was immediately discharged into 3.0 ml. of the sodium carbonate solution. This hemolyzed the blood and allowed the quantitation of carbon. The samples were then read in a spectrophotometer at 660 nm, the log concentration being obtained from a previously determined standard curve. The clearance value K may be determined by plotting log carbon concentration against time according to the following relationship; [formula] in which T1 and T2 represent the time in min when the sample were withdrawn and C1 and C2 represent the concentrations of carbon in the blood at the time T1 and T2, respectively. The aqueous solution of the drug as given was administered subcutaneously to mice. Twenty four hours later, blood stream clearance of carbon was measured. K value obtained with treated mice was compared with that of control mice.

[2] = test system: E. coli 22; assay: Protective efficacy in experimental infection in mice; assay type: in vivo; settings: male ICR mice, survival after four days
Method: In determining the protective efficacy against experimental infections in mice, the test compound was dissolved in and diluted with sterile saline to provide prescribed concentrations of drug.
Male ICR-strain mice, aged 4 weeks were used in groups of ten mice. E. coli 22 was cultivated overnight at 37° C. on trypticase soy agar and then were suspended in a sterile saline to obtain microbial cell concentration of 9.0×10^7 CFU/ml. Mice were inoculated intraperitoneally with 0.2 ml of the suspension. Each of the test drugs was given intraperitoneally in various doses to a group of ten mice 24 hours before challenge.
Survival percent were found from the number of the surviving animals after four days of injection.

D-Lac-L-Ala-γ-D-Glu(α-OH)-(L)-[D-Lac-L-Ala-γ-D-Glu(α-OH)-(L)-mesoDAP-(D)-Gly]-(D)-mesoDAP-(L)-GlyOH [Example 13 (Step 2)]
K treated/K control ([1]; dose 1 mg/mouse subcutaneously): 0.6
K treated/K control ([1]; dose 100 mg/mouse subcutaneously): 1.6
Survival (%) ([2]; dose 1 mg/kg intraperitoneally 24 hours before challenge): 100%
Survival (%) ([2]; dose 10 mg/kg intraperitoneally 24 hours before challenge): 100%
